In patent US20230241229A1, “A SAPOGENIN POLYETHYLENE GLYCOL ESTER COMPLEX OF FORMULA-I, A COMPOSITION, PROCESS OF PREPARATION, AND APPLICATIONS THEREOF” (PHYTOSOL INDIA PRIVATE LIMITED, priority 2020, published 2023):

Test: Solubility of the compositions by adding water
Type: physicochemical
Settings: component weight 100 mg
Experimental: Solubility of the Compositions I, II and III are determined by adding water to the composition and control curcumin (without the Diosgenin polyethylene glycol succinate).

COc1cc(/C=C/C(=O)CC(=O)/C=C/c2ccc(O)c(OC)c2)ccc1O [Control, Curcumin]
Water in ml require to solubilize: >1000 mL
